# Reference: patent US20140255471A1, “METHOD OF TREATING BRAIN TUMORS” (Wake Forest University Health Sciences, priority 2013, published 2014)
# Like-named read-outs stand apart in the source and are kept apart here.
# What was measured:
# [1] = Dose-finding / tolerability upon i.c. administration; type: in vivo, nude mice
# From the text: The nanoscale size of F10 (length ˜3 nm), as well as its multiple negative charges, make penetration of the BBB following systemic delivery an inefficient process. Conversely, intra-cranial (i.c.) administration of F10 is expected to result in high local concentrations that may be therapeutically beneficial, particularly in light of the relatively strong cytotoxicity towards GBM cells and the minimal toxicity of F10 towards primary cortical neurons (FIG. 3A). Dose-finding studies in nude mice were performed to identify doses that were sufficiently well-tolerated to be evaluated in efficacy studies. F10 was dissolved in PBS and administered i.e. using an Alzet osmotic mini-pump over a 7 day period. Vehicle-only served as a control. […] These dose levels are considerably lower than those used in recent leukemia studies in which F10 was administered systemically (200 mg/kg qodx4) (Pardee et al., Unique dual targeting of thymidylate synthase and topoisomerase 1 by FdUMP[10] results in high efficacy against AML and low toxicity. Blood. 2012; 119(15):3561-3570), consistent with F10 being retained within the BBB upon i.c. administration.
# SF-268 = conditions: at or below lowest concentration evaluated; cited from earlier work
# U138 cells [2] = assay: Flow cytometry of DNA content and cleaved caspase 3 in U138 cells; type: cell-based, human
# Procedure: U138 cells were treated with 1 nM FdUMP[10] and/or 10 nM of AZD7762 for 9 or 1 h, respectively, prior to irradiation with a single dose of 6 Gy. Cells were harvested 24 h post-irradiation and analyzed for DNA content (A) and cleaved caspase 3 (B) by flow cytometry.
# [3] = test system: CNS malignancies included in the NCI 60 cell line panel; assay: NCI 60 cell line screen, CNS malignancies of the panel; type: cell-based, human; conditions: several GBM cell lines
# [4] = target: T1, thymidylate synthase (TS) (Homo sapiens, UniProt P04818); assay: TS catalytic activity assay in lysates of treated GBM cells; type: cell-based; conditions: G48a, U-251 MG and SNB-19 GBM cells; F10 10^−6 and 10^−5 M, raltitrexed 10^−6 M
# T1 construct: harvested, and lysed by freeze-fracturing; Following centrifugation of cell lysates, supernatants were assayed for protein content and TS catalytic activity; endogenous in cells; host or cells: G48a, U-251 MG and SNB-19 GBM cells
# T1 sequence (P04818 2-313 limits assumed): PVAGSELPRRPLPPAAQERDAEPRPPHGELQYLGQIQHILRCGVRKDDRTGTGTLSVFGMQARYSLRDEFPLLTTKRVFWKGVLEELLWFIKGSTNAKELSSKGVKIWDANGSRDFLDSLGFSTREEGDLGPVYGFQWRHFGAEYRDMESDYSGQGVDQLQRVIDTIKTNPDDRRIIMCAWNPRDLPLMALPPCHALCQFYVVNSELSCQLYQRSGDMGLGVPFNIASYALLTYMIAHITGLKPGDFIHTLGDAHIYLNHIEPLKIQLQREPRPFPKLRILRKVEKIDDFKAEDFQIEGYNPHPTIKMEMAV
# Procedure: TS assays were conducted using procedures similar to those previously described. (Gmeiner et al., Enhanced DNA-directed effects of FdUMP[10] compared to 5FU. Nucleosides Nucleotides Nucleic Acids. 2004; 23(1-2):401-410.) GBM cells were plated at a density of 1.5×10^6 cells in 100 mm^2 plates. Cells were grown overnight in RPMI 1640 medium with 10% FBS. Either 5FU (Sigma), F10, or raltitrexed were then added at the indicated concentrations and the cells were incubated for 8, 16, 24, or 48 hrs, harvested, and lysed by freeze-fracturing. Following centrifugation of cell lysates, supernatants were assayed for protein content and TS catalytic activity as previously described. (Gmeiner et al., Enhanced DNA-directed effects of FdUMP[10] compared to 5FU. Nucleosides Nucleotides Nucleic Acids. 2004; 23(1-2):401-410.)
# [5] = test system: G48a orthotopic xenografts
# Procedure: G48a-luc were suspended into Hanks Balanced Salt Solution to a density of 10^5 cells/μL. Nude (nu/nu) 7-week old mice were obtained from NCI. Mice were anesthetized using a ketamine/xylazine mixture and placed on a small-animal, head-holding frame. A scalp incision was made to determine the drill-hole location, 1 mm right and 1 mm anterior to lambda. A 27-gauge needle attached to a 10 mL sterile Hamilton syringe (Hamilton, Reno, Nev.) was stereotactically inserted 3 mm below the dural surface and cells were injected into the deep white matter of the posterior thalamus. Cells were injected in a total of 5 μL over a five minute period. The syringe was removed two minutes after the injection was completed, retracting it at a rate of 0.5 mm per minute. After removal of the syringe, the hole was covered with cranio-plastic liquid. Animals were sutured, allowed to recover on a heating pad, and returned to their cages. Animal weight and behavior was monitored every three days.
# Starting on day 21 after tumor cell implantation, mice were treated by intra-cerebral (i.c.) infusion (0.5 μL/h) of F10 at 3 concentrations (80, 120 and 160 mg/kg) for a duration of 7 days. Drug was prepared in phosphate buffered saline. Osmotic pumps (ALZET® model 1007D, Alzet, Cupertino, Calif.) were primed in sterile saline overnight at 37° C. according to manufacturer's specification. The pumps were then coupled to brain infusion kits (ALZET® model 3). Animals were anesthetized using a ketamine/xylazine mixture and placed on a small-animal head holding frame, and the location of initial injection (1 mm right and 1 mm anterior to lambda) was retraced. The cannula was then inserted to a depth of 3 mm and secured with cranio-plastic adhesive and the pump was placed subcutaneously between the shoulder blades. Animals were sutured, allowed to recover and evaluated for any motor deficits resulting from the surgical procedure. […] Animals were euthanized 24 hours post-treatment when body weight loss was above 12% or when behavior prevented normal activity.
# Animals received an intraperitoneal (i.p.) injection of D-luciferin (150 mg/kg, stock solution 15 mg/mL in sterile PBS, Goldbio, St. Louis, Mo.), After 10 min, animals were anesthetized with isofluorane until non-responsive, and then placed in the imaging chamber. Three bioluminescent imaging acquisitions were collected at different exposure times (10, 60, 300 sec). Mice were allowed to recover and returned to their cages. Data were analyzed based on total photon flux emission (photons) in the region of interest over the intracranial space using Living Image software (Xenogen Corp.).
# Animals were deeply anesthetized with an i.p injection of ketamine/xylazine and fixed by transcardial perfusion through the heart with PBS (pH=7.4) followed by 4% paraformaldehyde in PBS (PFA). Brains were removed and fixed overnight in 4% PFA. Brains were then cryoprotected in 30% sucrose-PBS at 4° C. for 2-3 days, Brains were embedded in tissue-freezing medium (Triangle Biomedical Sciences, Durham, N.C.) and sections were cut to a thickness of 10 μm, thawed onto SuperFrost Plus slides (Fisher, Pittsburgh, Pa.) and kept at −20° C. until further processing. Sections from vehicle- and F10-treated animals were thawed prior to exposure with primary antibodies. Endogenous peroxidase activity and non-specific biotin was quenched with Peroxide Blocking Kit and Biotin Blocking Kit, respectively (ScyTek Laboratories, Logan, Utah). Antigen retrieval was performed with 10 mM sodium citrate buffer, pH 6.0, by microwaving for 5 min. Slides were blocked with SuperBlock (ScyTek) and incubated with polyclonal EphA2 antibody (R&D Systems, Minneapolis, Minn.) overnight at 4° C.
# [6] = test system: CNS malignancies included in the NCI 60 cell line panel; conditions: all CNS malignancies included in the NCI 60 cell line panel; cited from earlier work
# SF-295 = conditions: at or below lowest concentration evaluated; cited from earlier work
# SF-539 = conditions: at or below lowest concentration evaluated; cited from earlier work
# [7] = target: T2, DNA Topoisomerase 1 (Top1) cleavage complex (Homo sapiens, UniProt P11387); assay: In vivo complex of enzyme (ICE) bioassay; type: cell-based; conditions: SNB-19 and U-251 MG cells
# T2 construct: endogenous in cells; host or cells: SNB-19 and U-251 MG GBM cells
# T2 sequence (P11387 2-765 limits assumed): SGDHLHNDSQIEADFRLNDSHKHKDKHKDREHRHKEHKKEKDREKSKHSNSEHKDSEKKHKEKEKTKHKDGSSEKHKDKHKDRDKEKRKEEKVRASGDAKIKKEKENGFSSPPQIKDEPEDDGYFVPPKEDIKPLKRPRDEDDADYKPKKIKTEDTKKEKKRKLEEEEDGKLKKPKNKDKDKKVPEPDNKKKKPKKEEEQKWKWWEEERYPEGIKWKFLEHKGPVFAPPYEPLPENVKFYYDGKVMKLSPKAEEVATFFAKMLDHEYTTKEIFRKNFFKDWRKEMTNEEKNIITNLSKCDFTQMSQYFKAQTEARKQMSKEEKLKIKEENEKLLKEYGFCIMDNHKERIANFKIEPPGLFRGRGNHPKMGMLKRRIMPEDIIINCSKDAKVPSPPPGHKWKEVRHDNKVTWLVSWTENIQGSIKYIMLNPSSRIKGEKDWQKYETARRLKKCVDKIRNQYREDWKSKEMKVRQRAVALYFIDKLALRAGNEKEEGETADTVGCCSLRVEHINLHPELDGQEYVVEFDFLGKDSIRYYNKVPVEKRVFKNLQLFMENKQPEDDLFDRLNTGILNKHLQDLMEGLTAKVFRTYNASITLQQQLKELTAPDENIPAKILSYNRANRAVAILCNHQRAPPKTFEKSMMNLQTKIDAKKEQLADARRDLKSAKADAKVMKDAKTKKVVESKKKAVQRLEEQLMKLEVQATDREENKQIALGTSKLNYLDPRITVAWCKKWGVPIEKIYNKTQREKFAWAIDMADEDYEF
# Procedure: G48a and primary explant cells derived from patient GBM tumors were grown in RPMI 1640 (Lonza, Rockland, Me.) supplemented with 10% FBS and glucose (2 g/L). G48a-luciferase cells were produced by lentiviral infection using a GFP-tagged vector. Cells were selected using blastocydin (10 μg/mL). U-251 MG and SNB-19 cells were obtained from ATCC and grown in RPMI 1640 (Lonza, Rockland, Me.) supplemented with 10% FBS and glucose (2 g/L). U-251 MG cells were grown in DMEM supplemented with 10% FBS and non-essential amino acids. In vivo complex of enzyme (ICE) bioassays were completed using methods similar to those previously described. (Liao et al., A novel polypyrimidine antitumor agent FdUMP[10] induces thymineless death with topoisomerase I-DNA complexes. Cancer Res. 2005; 65(10:4844-4851) GBM cells were incubated with F10 at the indicated concentrations for 0-48 hrs. Thymidine (Thy) rescue was accomplished by adding Thy at 80 μM, as the 20 μM dose previously described (Wang et al., Mechanisms of acquired chemoresistance to 5-fluorouracil and tomudex: thymidylate synthase dependent and independent networks. Cancer Chemother Pharmacol. 2007; 59(6):839-845) was not effective for rescue. Cell samples were counted and equalized for cell number. Primary antibody (mouse anti-human DNA Top I, BD Pharmingen) was added at 1:500 dilution. Secondary antibody (Cell Signaling) was used at 1:1000. […]
# U138 cells [8] = assay: Clonogenic survival of U138 cells; type: cell-based, human; conditions: 1 nM FdUMP[10] and/or 10 nM AZD7762, drugs removed after 72 h, colonies counted 10 days post-treatment
# Procedure: 500-2000 U138 cells were seeded into 60 mm dishes and treated with 1 nM FdUMP[10] (F1) and/or 10 nM AZD7726 (A2) and the drugs were removed after 72 h. Cells were fixed and stained with violet blue and colonies were counted using a colony counter 10 days post-treatment. […] The results are consistent with FdUMP[10]AZD7762 being synergistic at decreasing the clonogenicity of U138 cells.
# SNB-19 = conditions: cited from earlier work
# G48a cells = assay: Cytotoxicity (cell viability) towards G48a GBM cells; type: cell-based, human; conditions: G48a cell line; FIG. 1C
# U-251 MG = conditions: cited from earlier work
# U138 cells [9] = assay: Radiosensitization of U138 cells (clonogenic, 6 Gy); type: cell-based, human; conditions: FdUMP[10] and AZD7762 given before irradiation
# Procedure: FIG. 9. Treating human glioma U138 cells with FdUMP[10] and AZD7726 enhanced their radiosensitivity. 500-2000 U138 cells were seeded into 60 mm dishes and treated with 1 nM FdUMP[10] (F1) for 9 h and 10 nM AZD7726 (A2) for 1 h prior to irradiation with a single dose of 6 Gy. Cells were fixed and stained with violet blue and colonies were counted using a colony counter at 10 days post-treatment. The study indicates combined treatment U138 with FdUMP[10] and AZD7762 sensitize cells to radiation.
# Radiation is cytotoxic as a consequence of unrepaired DNA damage. […] In these studies, FdUMP[10] was administered […] prior to irradiation and AZD7762 1 h prior to radiation. Though not wishing to be bound by theory, it is thought that radiosensitization results from induction of a thymineless state following FdUMP[10] treatment and disabling of HRR and abrogation of the G2 checkpoint following AZD7762 treatment. Under these conditions, DNA repair of radiation-induced DNA damage is inhibited due to lack of thymidine while inhibiting Rad51 activation prevents HRR which is important for repair of radiation-induced DNA DSBs (Helleday 2010). Abrogating the G2-checkpoint causes cells to enter mitosis with lethally-damaged DNA enhancing the cytotoxic effects of radiation.
# [10] = test system: primary astrocyte cultures; assay: Viability of primary astrocyte cultures; conditions: same doses as for neurons (up to 1 μM)
# primary cortical neurons = assay: Viability of primary cortical neuronal cultures; conditions: 1 μM, 72 hours in culture
# Procedure: Cortical neuronal cultures were prepared using previously described protocols. […] The tissue was further dissected into smaller pieces. After washes in cold PBS without Ca^+2/Mg^+2, tissue was incubated in 0.05% trypsin in PBS without Ca^+2/Mg^+2. Tissue was then dissociated in NB media using a blue-tip pipette. Dissociated cells were layered onto a 4% BSA cushion to remove debris. Cells were plated in NB media at a density 4×10^4 cells/well in a 24 well dish. After 24 hours, media was removed and replaced with fresh media with or without 5FU or F10. After 72 hours in culture, surviving neurons were counted. To be counted a cell had to have a phase-bright cell body and at least one neurite that was at least two times the diameter of the soma. Results are expressed as percent control (Mean±SD) where control represents cultures without the addition of 5FU or F10 (n=4 individual experiments with at least two wells per condition). Statistical significance was determined with a one-way ANOVA followed by the Bonferroni post-hoc test.
# [11] = with irradiation 6 Gy, 1 nM FdUMP[10] 9 h and/or 10 nM AZD7762 1 h before, 24 h post-irradiation
molecule,measurement,setting,value
FdUMP[10] [F10],well-tolerated dose,"[1]; i.c., osmotic mini-pump over 7 days",up to 200 mg/kg
same,appearance and behaviour of mice,"[1]; mouse, in vivo","light-sensitive, with eyes partially closed, and were more lethargic than mice treated with vehicle-only"
same,GI50,SF-268,≤ 5 nM
same,DNA content / cell cycle,U138 cells [2]; 1 nM FdUMP[10] and/or 10 nM AZD7762,causes G2-arrest
same,cleaved caspase 3 (apoptosis),U138 cells [2]; [11],result predominantly in apoptotic cells
same,differential sensitivity for F10 relative to 5FU,[3],"~10,000 fold"
same,TS inhibition,[4],inhibited TS completely
same,"EphA2 staining, tumor-bearing side",[5]; 80 mg/kg,only trace levels of EphA2 positive staining
same,"EphA2 staining, tumor-bearing side",[5]; 120 mg/kg,no EphA2 staining
same,mean tumor volumes (%-change in photon emission),"[5]; 120 mg/kg i.c. over 7 days, p<0.01",significantly decreased relative to control
same,extent of tumor cell necrosis (H&E),[5]; 120 mg/kg vs 80 mg/kg,greater tumor cell necrosis than the 80 mg/kg dose
same,luminescent signal (IVIS imaging),[5]; 160 mg/kg i.c. over 7 days,did not display decreased lumincescent signal
same,treatment effect by histology,[5]; 160 mg/kg i.c. over 7 days,significant treatment effect
same,tumor regression (IVIS imaging),[5]; 80 and 120 mg/kg i.c. over 7 days,significant tumor regression
same,necrosis in tumor tissue (H&E),[5]; 80 or 120 mg/kg i.c. over 7 days,extensive areas of necrosis selectively within tumor tissue
same,necrosis in contralateral side of brain (H&E),"[5]; mouse, in vivo",no observable necrosis
same,GI50,[6],< 1000 nM
same,GI50,SF-295,≤ 5 nM
same,GI50,SF-539,≤ 5 nM
same,Top1CC formation,[7],induces Top1CC formation
same,survival fraction,U138 cells [8],0.84
same,GI50,SNB-19,170 nM
same,IC50,G48a cells,~1000 nM
same,GI50,U-251 MG,115 nM
same,radiosensitization,U138 cells [9],neither FdUMP[10] nor AZD7762 are appreciably radiosensitizing
"Cc1nc2ccc(CN(C)c3ccc(C(=O)N[C@@H](CCC(=O)O)C(=O)O)s3)cc2c(=O)[nH]1 [Raltitrexed, reference compound]",TS inhibition,[4],effectively inhibited TS
"O=c1[nH]cc(F)c(=O)[nH]1 [5FU, 5-fluorouracil]","viability of primary astrocyte cultures, treated vs control",[10],no apparent differences in viability
same,decreased viability for cortical neurons relative to control,primary cortical neurons,approximately 50%
"NC(=O)Nc1cc(-c2cccc(F)c2)sc1C(=O)N[C@H]1CCCNC1 [AZD7762, reference compound]",cleaved caspase 3 (apoptosis),U138 cells [2]; [11],do not result in significant percent of cleaved caspase 3
same,cleaved caspase 3 (apoptosis),"U138 cells [2]; without irradiation, 10 nM AZD7762",do not result in significant percent of cleaved caspase 3
same,survival fraction,U138 cells [8],0.80
same,radiosensitization,U138 cells [9],neither FdUMP[10] nor AZD7762 are appreciably radiosensitizing
